Experiments:
[1] = test system: pre-established bleomycin induced skin fibrosis in mice; assay: Regression of pre-established bleomycin induced skin fibrosis; assay type: in vivo; conditions: 6 weeks of bleomycin, treatment for the last 3 weeks
Procedure: (§1) Dermal fibroblasts from patients with SSc were cultured in the presence of DB1976. […] Moreover, in the presence of DB1976 differentiation of fibroblasts into matrix-producing myofibroblasts is inhibited (FIG. 3C). Bleomycin induced skin fibrosis was induced by local injections of bleomycin in C57Bl/6 mice (10 weeks of age, mixed genders) for four weeks. Subcutaneous injections of 0.9% NaCl served as a control. DB1976 was administered into tail vein every second day in different concentrations (1 mg/kg body weight; 5 mg/kg body weight) after first application of bleomycin. […] Bleomycin-induced pulmonary fibrosis was induced by a single intratracheal application of bleomycin in C57Bl/6 mice (12 weeks of age, males) using a high pressure syringe (Penn-Century, Wyndmoor, Pa., USA). Instillation of equal volumes of 0.9% NaCl served as a control. […] Carbon tetrachloride CCl4-induced hepatic fibrosis was induced by intraperitoneal (i.p.) injections of CCl4 in […] mice (14 weeks of age, mixed genders) (Palumbo-Zerr et al. Nature Medicine 21, 150-158 (2015)) twice weekly. […] DB1976 was also effective when initiated after fibrosis had already become manifest. In those experiments, mice were pre-challenged with bleomycin for 3 weeks to induce robust skin fibrosis. After 3 weeks, treatment with DB1976 was initiated, while injections with bleomycin were continued. […] Therapeutic application of DB1976 ameliorated skin thickness, collagen content and myofibroblast counts in the skin (FIG. 6A-F).
FIG. 6: Regression of pre-established bleomycin induced skin fibrosis by treatment with DB1976. Mice were pre-challenged with bleomycin for 3 weeks to induce robust skin fibrosis. After 3 weeks, treatment with DB1976 was initiated, while injections with bleomycin were continued. After a total of 6 weeks of bleomycin and 3 weeks of treatment with DB1976, the extent of fibrosis was assessed. (A) Representative images of trichrome staining of skin tissue from control mice (Wild-type (WT) treated with sodium chloride; n≥4), 3 weeks bleomycin and afterwards 3 weeks sodium chloride treated mice (n≥8), bleomycin treated mice (n≥8) and mice treated with bleomycin and different concentrations of DB1976 (n≥3 each); (B;C) mRNA expression level of col1a1 and col1a2; (D) dermal thickness; (E) quantification of α-smooth muscle actin-positive myofibroblasts; (F) hydroxyproline content.

[2] = test system: CCl4-induced hepatic fibrosis in mice; assay: Carbon tetrachloride CCl4-induced hepatic fibrosis model; assay type: in vivo; conditions: CCl4 i.p. twice weekly
Procedure: as §1
(§2) FIG. 5: Model of bleomycin induced lung and CCI-4 induced liver fibrosis. (A) Representative images of sirius red staining of lung tissue from control mice (Wild-type (WT) treated with sodium chloride; n=4), bleomycin treated mice (n≥7) and mice treated with bleomycin and DB1976 (n=≥5); (B) quantification of the fibrotic area; (C, D) mRNA expression level of col1a1 and col1a2; (E) hydroxyproline content.

[3] = test system: Dermal fibroblasts from patients with SSc; assay: Differentiation of fibroblasts into matrix-producing myofibroblasts (αSMA, stress fibers, immune fluorescence microscopy); assay type: cell-based, human; conditions: in the presence of compound
Procedure: (§3) Dermal fibroblasts from patients with SSc were cultured in the presence of DB1976. […] Moreover, in the presence of DB1976 differentiation of fibroblasts into matrix-producing myofibroblasts is inhibited (FIG. 3C). Bleomycin induced skin fibrosis was induced by local injections of bleomycin in C57Bl/6 mice (10 weeks of age, mixed genders) for four weeks. Subcutaneous injections of 0.9% NaCl served as a control. DB1976 was administered into tail vein every second day in different concentrations (1 mg/kg body weight; 5 mg/kg body weight) after first application of bleomycin. […] Bleomycin-induced pulmonary fibrosis was induced by a single intratracheal application of bleomycin in C57Bl/6 mice (12 weeks of age, males) using a high pressure syringe (Penn-Century, Wyndmoor, Pa., USA). […]
(§4) (A) Formazan toxicity assay of fibroblasts incubated with different concentrations of DB1976 as indicated; (B) human diseased dermal fibroblasts untreated or stimulated with either TGF-β alone or TGF-β plus DB1976; collagen protein level and mRNA level of col1a1 relative to control. […] (C) Immune fluorescence microscopy of cultured fibroblasts as indicated; cells are stained with DAPI, alpha smooth muscle actin (αSMA) and stress fibers. Representative image of 5 independent experiments are shown. *p<0.05 determined by Student's t test according pretest for normality (D'Agostino-Pearson normality test).

PU.1 = conditions: cited from earlier work
[4] = test system: Dermal fibroblasts from patients with SSc; assay: Formazan toxicity assay of fibroblasts; assay type: cell-based, human; conditions: dermal fibroblasts from SSc patients cultured with different concentrations of compound
Procedure: as §3, §4

[5] = test system: Bleomycin induced skin fibrosis in C57Bl/6 mice; assay: Bleomycin induced skin fibrosis model; assay type: in vivo; conditions: tail vein every second day, 1 and 5 mg/kg body weight, bleomycin four weeks; concentration dependent
Procedure: as §1
FIG. 4: Model of bleomycin induced skin fibrosis. (A) Representative images of trichrome staining of skin tissue from control mice (Wild-type (WT) treated with sodium chloride; n≥7), bleomycin treated mice (n=10) and mice treated with bleomycin and different concentrations of DB1976 (n≥8 each); (B;C) mRNA collagen1a1 or collagen1a2 expression; (D) dermal thickness; (E) quantification of α-smooth muscle actin-positive myofibroblasts; (F) hydroxyproline content.

[6] = test system: Bleomycin-induced pulmonary fibrosis in C57Bl/6 mice; assay: Bleomycin-induced pulmonary fibrosis model; assay type: in vivo; conditions: lung; compared to mice that received bleomycin without compound
Procedure: as §1, §2

[7] = test system: human diseased dermal fibroblasts; assay: Collagen release from fibroblasts after stimulation with TGF-β; assay type: cell-based; conditions: compared to TGF-β alone
Procedure: as §3
as §4, with “test). […]” for “test).”

mice = assay: Tolerability of treatment in mice; assay type: in vivo
Procedure: Dermal fibroblasts from patients with SSc were cultured in the presence of DB1976. […] Moreover, in the presence of DB1976 differentiation of fibroblasts into matrix-producing myofibroblasts is inhibited (FIG. 3C). Bleomycin induced skin fibrosis was induced by local injections of bleomycin in C57Bl/6 mice (10 weeks of age, mixed genders) for four weeks. Subcutaneous injections of 0.9% NaCl served as a control. DB1976 was administered into tail vein every second day in different concentrations (1 mg/kg body weight; 5 mg/kg body weight) after first application of bleomycin. […] Bleomycin-induced pulmonary fibrosis was induced by a single intratracheal application of bleomycin in C57Bl/6 mice (12 weeks of age, males) using a high pressure syringe (Penn-Century, Wyndmoor, Pa., USA). Instillation of equal volumes of 0.9% NaCl served as a control. […] Carbon tetrachloride CCl4-induced hepatic fibrosis was induced by intraperitoneal (i.p.) injections of CCl4 in […] mice (14 weeks of age, mixed genders) (Palumbo-Zerr et al. Nature Medicine 21, 150-158 (2015)) twice weekly. […] DB1976 was also effective when initiated after fibrosis had already become manifest. In those experiments, mice were pre-challenged with bleomycin for 3 weeks to induce robust skin fibrosis. After 3 weeks, treatment with DB1976 was initiated, while injections with bleomycin were continued. […]

[8] = test system: Cancer associated fibroblasts (CAFs); assay: Matrix production of cancer associated fibroblasts activated by TGF-β; assay type: cell-based, human; conditions: cultured with compound for 96 h, compared to CAFs without compound
Text: Cancer associated fibroblasts (CAFs) are associated with cancer cells at all stages of cancer progression, and their structural and functional contributions to this process are well known. This implies that CAFs have a prominent role in the progression, growth and spread of cancers and represent an important target for cancer therapies.
FIG. 7: DB1976 inhibits collagen production of cancer associated fibroblasts (CAFs). (A) Quantification of PU.1-expressing fibroblasts in healthy colon tissue compared to tumor tissue (colorectal carcinoma). Cells are counted per high power field (HPF). (B) collagen production of CAFs assessed by western blot analysis; PU.1, collagen and β-actin expression in response to stimulation w/o TGF-β in the presence and absence of DB1976; representative blots of 6 independent experiments are shown. […] (C) Immune fluorescence microscopy of fibroblasts from healthy tissue (HC) and CAFs cultured w/o DB1976; DAPI and alpha smooth muscle actin (αSMA) are stained. Representative images of 5 independent experiments are shown. *p<0.05; **p<0.01 determined by Mann-Whitney U-test for non-parametric data.

apoptosis = assay: Apoptosis by staining for cleaved caspase-3 or TUNEL assays

For N=C(N)c1ccc2nc(-c3ccc(-c4nc5ccc(C(=N)N)cc5[nH]4)[se]3)[nH]c2c1 [DB1976], the “collagen content in the skin” value [1] was “ameliorated”, the “myofibroblast counts in the skin” value [1] was “ameliorated” and the skin thickness [1] was “ameliorated”. The extent of fibrosis ([1]; compared to controls) was “significantly reduced”, the “fibrotic tissue remodeling of the liver” value [2] was “significant less” and the collagen production ([2]; liver) was “less”. The myofibroblast differentiation ([2]; liver) was “less”, the “differentiation of fibroblasts into matrix-producing myofibroblasts” value [3] was “inhibited” and the “inhibition of PU.1-binding to the DNA of PU.1 target genes” value (PU.1) was “potent inhibitor”. The “toxic effects in formazan toxicity assays” value [4] was “did not observe toxic effects”, the “collagen release assessed by col1a2 mRNA expression” value [5] was “significantly decreased” and the “collagen release assessed by hydroxyproline content of the skin” value [5] was “significantly decreased”. The myofibroblast differentiation [5] was “significantly decreased”, the skin thickening [5] was “significantly decreased” and the Ashcroft score [6] was “reduced”. For the same molecule, the “collagen expression (hydroxyproline content)” value [6] was “decreased”, the “collagen expression (mRNA)” value [6] was “decreased” and the myofibroblast count [6] was “decreased”. The “volume of fibrotic area” value [6] was “decreased”, the “collagen release from fibroblasts” value [7] was “strong reduction” and the “clinical evidence of toxicity” value (mice) was “no clinical evidence of toxicity”. The tolerability of treatment (mice) was “well-tolerated”, the “alpha smooth muscle actin (αSMA)” value [8] was “significant reduction” and the collagen production [8] was “significant reduction”. For the same molecule, the stress fiber expression [8] was “significant reduction”, the “apoptosis by TUNEL assays” value (apoptosis) was “did not detect any evidence of apoptosis” and the “apoptosis in staining for cleaved caspase-3” value (apoptosis) was “did not detect any evidence of apoptosis”.

From patent US20210283109A1, “HETEROCYCLIC DIAMIDINES” (Friedrich-Alexander-Universität Erlangen-Nürnberg, priority 2016, published 2021)
